Experimental data from patent US10849897B2, “Pyridyl derivatives as bromodomain inhibitors” (GLAXOSMITHKLINE INTELLECTUAL PROPERTY (NO.2) LIMITED, priority 2017, dated 2020).

Tests used:
BRD4 BD2 = target: T1, BRD4 BD2 (Homo sapiens, UniProt O60885, Y97A); test: BRD4 BD2 TR-FRET competition assay; type: binding; conditions: TR-FRET competition with Reference Compound X; read-out: pIC50 in the BRD4 BD2 assay (converted)
T1 construct: BRD4 (1-477) (Y97A) and (Y390A); made in house; host or cells: E. coli (pET15b vector)
Method: (§1) Bromodomain binding was assessed utilising a time resolved fluorescent resonance energy transfer (TR-FRET) competition assay. To enable this approach a known, high affinity, pan-BET interacting small molecule was labelled with Alexa Fluor® 647, which is a far-red-fluorescent dye (Reference Compound X). Reference Compound X acts as a reporter of bromodomain binding and is the acceptor fluorophore component of the TR-FRET pair. Europium chelate, conjugated to an anti-6*His antibody, was utilised as the donor fluorophore in the TR-FRET pair. The anti-6*His antibody binds selectively to a six Histidine purification epitope added to the amino-terminus of each of the BET tandem bromodomain protein constructs used in this study. A TR-FRET signal is generated when the donor and acceptor fluorophores are in close proximity, between 20-80 Å, which is enabled in this assay by binding of Reference Compound X to the bromodomain protein.
(§2) In order to generate a TR-FRET signal, donor fluorophore is excited by a laser at λ337 nm, which subsequently leads to emission at λ618 nm. If the acceptor fluorophore is in close proximity then energy transfer can occur, which leads to emission of Alexa Fluor® 647 at λ665 nm. In the presence of competitor compound, Reference Compound X can be displaced from binding to the bromodomain. If displacement occurs, the acceptor fluorophore is no longer in proximity to the donor fluorophore, which prevents fluorescent energy transfer and, subsequently, a loss of Alexa Fluor® 647 emission at λ665 nm.
(§3) The competition of the compounds of formula (I) with Reference Compound X for binding to the BET family (BRD2, BRD3, BRD4 and BRDT) was assessed using protein truncates spanning both bromodomain 1 (BD1) and bromodomain 2 (BD2). In order to monitor differential binding to either BD1 or BD2, single residue mutations of key tyrosines to alanine were made in the acetyl lysine binding pockets. To validate this approach, a double residue mutant tandem domain protein was produced for each of the BET family members. Utilising a Fluorescence Polarisation approach, binding affinities for each of the single and double mutants for Reference Compound X were determined. […] The affinities of the single mutated bromdomain tandem proteins for Reference Compound X were equi-potent with the corresponding non-mutated BET protein. […] In the TR-FRET competition assay, Reference Compound X is used at a concentration that is equivalent to the Kd for the non-mutated bromodomain, which ensures that no binding at the mutated bromodomain is detected.
(§4) Recombinant Human Bromodomains [(BRD2 (1-473) (Y113A) and (Y386A), BRD3 (1-435) (Y73A) and (Y348A) BRD4 (1-477) (Y97A) and (Y390A) and BRDT (1-397) (Y66A) and (Y309A)] were expressed in E. coli cells (in pET15b vector for BRD2/3/4 and in pET28a vector for BRDT) with a 6-His tag at the N-terminal. The His-tagged Bromodomain pellet was resuspended in 50 mM HEPES (pH 7.5), 300 mM NaCl, 10 mM imidazole & 1 μL/mL protease inhibitor cocktail and extracted from the E. coli cells using sonication and purified using a nickel sepharose high performance column, the proteins were washed and then eluted with a linear gradient of 0-500 mM imidazole with buffer 50 mM HEPES (pH 7.5), 150 mM NaCl, 500 mM imidazole, over 20 column volumes. Final purification was completed by Superdex 200 prep grade size exclusion column. Purified protein was stored at −80° C. in 20 mM HEPES pH 7.5 and 100 mM NaCl. Protein identity was confirmed by peptide mass fingerprinting and predicted molecular weight confirmed by mass spectrometry.
All assay components were dissolved in an assay buffer composing of 50 mM HEPES pH 7.4, 50 mM NaCl, 5% Glycerol, 1 mM DTT and 1 mM CHAPS. Reference Compound X was diluted, in assay buffer containing 20 nM single mutant, tandem bromodomain protein, to a concentration equivalent to 2*Kd for this bromodomain. […]

BRD4 BD1 and BRD4 BD2 = BRD4 BD1 and BRD4 BD2 TR-FRET assays (selectivity for BRD4 BD2 over BRD4 BD1); type: binding, Human; conditions: for selectivity for BRD4 BD2 over BRD4 BD1: BRD4 BD2 pIC50 − BRD4 BD1 pIC50, in at least one of the TR-FRET assays
Method: as §1, §2, §3
as §4, with “Protein identity was confirmed by peptide mass fingerprinting and predicted molecular weight confirmed by mass spectrometry.” left out

[1] = test system: BET family (BRD2, BRD3, BRD4 and BRDT) tandem bromodomain proteins; test: Fluorescence Polarisation binding of Reference Compound X to single and double mutant tandem BET proteins; design: species or system Human; conditions: single residue (Tyr to Ala) mutants
Method: as §3, with “detected. […]” for “detected.”

Question: CNC(=O)c1cc(C(=O)NCC(C)O)cc(Cc2ccccc2)n1 (racemic) [Example 61, (+/−)-6-Benzyl-N^4-(2-hydroxypropyl)-N^2-methylpyridine-2,4-dicarboxamide] was tested. Which IC50 (BRD4 BD2) did it give?
Answer: 1000 to 10000 nM

Question: What does the source list for CNC(=O)c1cc(C(=O)Nc2cn[nH]c2)cc(C(OC)c2ccccc2)n1 (single isomer, unassigned) [Example 55, (S*)-6-(Methoxy(phenyl)methyl)-N^2-methyl-N^4-(1H-pyrazol-4-yl)pyridine-2,4-dicarboxamide]?
Answer: IC50 (BRD4 BD2): 20 nM; selectivity for BRD4 BD2 over BRD4 BD1 (BRD4 BD1 and BRD4 BD2): 2.7 log unit

Question: What does the source list for CNC(=O)c1cc(C(=O)Nc2cnn(C)c2)cc(Cc2ccccc2)n1 [Example 11, 6-Benzyl-N^2-methyl-N^4-(1-methyl-1H-pyrazol-4-yl)pyridine-2,4-dicarboxamide]?
Answer: IC50 (BRD4 BD2): 15.8 nM; selectivity for BRD4 BD2 over BRD4 BD1 (BRD4 BD1 and BRD4 BD2): 2.7 log unit

Question: What does the source list for CNC(=O)c1cc(C(=O)Nc2cn[nH]c2)cc(Cc2ccccc2)n1 [Example 12, 6-Benzyl-N^2-methyl-N^4-(1H-pyrazol-4-yl)pyridine-2,4-dicarboxamide]?
Answer: IC50 (BRD4 BD2): 20 nM; selectivity for BRD4 BD2 over BRD4 BD1 (BRD4 BD1 and BRD4 BD2): 2.7 log unit

Question: What does the source list for CNC(=O)c1cc(C(=O)Nc2cn[nH]c2)cc([C@@H](C)c2ccccc2)n1 [Example 16, (S)-N^2-Methyl-6-(1-phenylethyl)-N^4-(1H-pyrazol-4-yl)pyridine-2,4-dicarboxamide]?
Answer: IC50 (BRD4 BD2): 10 nM; selectivity for BRD4 BD2 over BRD4 BD1 (BRD4 BD1 and BRD4 BD2): 3.0 log unit; fold selective for BRD4 BD2 over BRD4 BD1 (BRD4 BD1 and BRD4 BD2; from the pIC50 difference): 1000 fold

Question: How did the IC50 (BRD4 BD2) turn out when CNC(=O)c1cc(C(=O)NCCOC)cc(Cc2cccc(OC)c2)n1 [Example 59, 6-(3-Methoxybenzyl)-N^4-(2-methoxyethyl)-N^2-methylpyridine-2,4-dicarboxamide] was run?
Answer: 1000 to 10000 nM

Question: How did the IC50 (BRD4 BD2) turn out when CNC(=O)c1cc(C(=O)NC(C)(C)C)cc(Cc2ccccc2)n1 [Example 66, 6-Benzyl-N^4-(tert-butyl)-N^2-methylpyridine-2,4-dicarboxamide] was run?
Answer: 1000 to 10000 nM

Question: Which IC50 (BRD4 BD2) does the source give for CNC(=O)c1cc(C(=O)Nc2nc(C)no2)cc([C@@H](C)c2ccccc2)n1 [Example 74, (S)-N^2-Methyl-N^4-(3-methyl-1,2,4-oxadiazol-5-yl)-6-(1-phenylethyl)pyridine-2,4-dicarboxamide] here?
Answer: 1000 to 10000 nM

Question: With CNC(=O)c1cc(C(=O)Nc2nnc(C)o2)cc([C@@H](C)c2ccccc2)n1 [Example 75, (S)-N^2-Methyl-N^4-(5-methyl-1,3,4-oxadiazol-2-yl)-6-(1-phenylethyl)pyridine-2,4-dicarboxamide] as the molecule, how does the IC50 (BRD4 BD2) read?
Answer: 1000 to 10000 nM

Question: How did the IC50 (BRD4 BD2) turn out when CNC(=O)c1cc(C(=O)Nc2nncn2C)cc([C@@H](C)c2ccccc2)n1 [Example 76, (S)-N^2-Methyl-N^4-(4-methyl-4H-1,2,4-triazol-3-yl)-6-(1-phenylethyl)pyridine-2,4-dicarboxamide] was run?
Answer: 1000 to 10000 nM

Question: With COc1ccc2c(c1)C(c1ccc(Cl)cc1)=N[C@@H](CC(=O)NCCCCCNC(=O)CCCCCC1(C)/C(=C/C=C/C=C/C3=[N+](CCCCS(=O)(=O)O)c4ccc(S(=O)(=O)O)cc4C3(C)C)N(CCCCS(=O)(=O)[O-])c3ccc(S(=O)(=O)O)cc31)c1nnc(C)n1-2 (stereo partly shown) [Reference Compound X] as the molecule, how does the “affinity of single mutated bromodomain tandem proteins compared with corresponding non-mutated BET protein” value [1] read?
Answer: equi-potent
